One assay addresses T1, human M1 (Homo sapiens, UniProt P11229).
T1 construct: expressed in transfected cells; host or cells: CHO cells
T1 sequence (P11229 1-460): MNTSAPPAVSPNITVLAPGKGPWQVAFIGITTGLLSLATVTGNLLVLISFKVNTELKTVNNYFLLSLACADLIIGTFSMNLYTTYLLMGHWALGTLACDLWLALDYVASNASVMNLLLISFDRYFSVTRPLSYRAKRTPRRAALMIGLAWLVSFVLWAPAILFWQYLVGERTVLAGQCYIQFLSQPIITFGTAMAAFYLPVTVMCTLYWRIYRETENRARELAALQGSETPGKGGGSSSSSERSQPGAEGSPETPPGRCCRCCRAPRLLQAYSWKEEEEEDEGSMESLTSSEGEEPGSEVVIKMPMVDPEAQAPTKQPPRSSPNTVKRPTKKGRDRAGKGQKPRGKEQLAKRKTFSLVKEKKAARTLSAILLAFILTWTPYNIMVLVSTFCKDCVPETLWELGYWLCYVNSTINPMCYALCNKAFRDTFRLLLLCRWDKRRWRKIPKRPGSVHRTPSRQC
The assay is described as follows: M1 PAM assay (FLIPR intracellular calcium, CHO human M1). The assay is classed as cell-based. As for the experimental part:
The assay study the effect of several concentrations of test compounds on basal or acetylcholine-stimulated Ca^2+ levels using FLIPR. CHO human M1 are plated the day before the experiments at 2×10^5 cells/ml in PDL BioCoat 96 well black/clear plate (Becton 35 4640). The cells are grown at 37° C. and 5% CO2 in the following medium: F12 Nut Mix (Gibco 21765), 10% FCS heat inactivated (GIBCO 16000-044), 1% Pen Strep (Gibco, 15140) and 200 μg/ml Geneticin (Gibco 11811). On the day of the experiment, the medium was removed and replaced by 100 μl of dye loading buffer containing Hanks Balanced Salt solution (HBSS, 14065-049, Gibco) with 20 mM HEPES (Gibco 15630-056), 2 mM Probenicid (Sigma P8761), […] (Molecular Probes F-14202), 10% Pluronic acid Molecular Probes P-3000) pH=7.4 and incubated at 37° C. After 60 minutes extracellular dye was removed and the cells were washed five times with FLIPR buffer containing HBSS (Gibco 14065-049) with 20 mM HEPES (Gibco, 15630-056), 2 mM Probenicid (Sigma P8761) pre-warmed at 37° C. using and Ebml cell washer leaving 100 μl of FLIPR buffer in each well. The cell plate and the diluted compounds (1% DMSO final concentration) are placed on the platform of the FLIPR and the door closed. A signal test to check background fluorescence and basal fluorescence signal is performed. Laser intensity is adjusted if necessary. Two minutes preincubation with the diluted test compounds is provide to determine any agonist activity on the M1 receptor by comparison to 30 nM Acetylcholine control. In order to determine any modulator activity the diluted compounds were added to cells and after two minutes preincubation, the EC20 of acetylcholine is added followed by another two minutes preincubation before the measurement of intracellular Ca^2+ with a FLIPR (Molecular Devices).

The target of another assay is T2, M1 receptor (Rattus norvegicus, UniProt P08482).
T2 construct: expressed in transfected cells
T2 sequence (P08482 1-460): T1 sequence (P11229 1-460) with A5V, T254S, P309S, R320K, A337G, I413V
The assay can be described thus: M1 PAM assay (FLIPR intracellular calcium), rat. It is filed as cell-based.

Residue numbers refer to the chain shown, from its start. Read-outs that look alike come from different tables or passages of the source.

As for `CCC(CO)NC(=O)c1cn(Cc2ccc(-c3cnn(C)c3)cc2F)c2cccnc12` (stereo not shown) [Example 13, 1-[2-Fluoro-4-(1-methyl-1H-pyrazol-4-yl)-benzyl]-1H-pyrrolo[3,2-b]pyridine-3-carboxylic acid (1-hydroxymethyl-propyl)-amide], the EC50 at human M1 was determined as 195 nM; at M1 receptor it was 632 nM.
`Cn1cc(-c2ccc(Cn3cc(C(=O)N[C@H]4CCCC[C@@]4(C)O)c4ncccc43)c(F)c2)cn1` (racemic) [Example 40, 1-(2-fluoro-4-(1-methyl-1H-pyrazol-4-yl)benzyl)-N-((1SR,2RS)-2-hydroxy-2-methylcyclohexyl)-1H-pyrrolo[3,2-b]pyridine-3-carboxamide]: the EC50 on human M1 worked out at 47.9 nM; at M1 receptor, 63.2 nM.
For the compound `O=C(NC1CCOCC1)c1cn(Cc2ccc3[nH]ncc3c2)c2cccnc12` [Example 62], the EC50 stood at 428 nM on human M1 and 325 nM on M1 receptor.
In the case of `Cn1cc(-c2ccc(Cn3cc(C(=O)N[C@H]4COCC[C@@H]4O)c4ncccc43)c(F)c2)cn1` [Example 41, 1-[[2-fluoro-4-(1-methylpyrazol-4-yl)phenyl]methyl]-N-[(3S,4S)-4-hydroxyoxan-3-yl]pyrrolo[3,2-b]pyridine-3-carboxamide], the half-maximal effective concentration (EC50) on human M1 (human M1 in CHO cells, modulator activity with EC20 of acetylcholine, FLIPR Ca2+, read-out: EC50 h PAM) stood at 30.4 nM; at M1 receptor (rat, modulator activity with EC20 of acetylcholine, FLIPR Ca2+, read-out: EC50 rat PAM) it was 51 nM.
For `CC(C)C(CO)NC(=O)c1cn(Cc2ccc(-c3cnn(C)c3)cc2F)c2cccnc12` (stereo not shown) [Example 22, 1-[2-Fluoro-4-(1-methyl-1H-pyrazol-4-yl)-benzyl]-1H-pyrrolo[3,2-b]pyridine-3-carboxylic acid (1-hydroxymethyl-2-methyl-propyl)-amide], the values for the EC50 at human M1 and at M1 receptor were 183 nM and 381 nM, respectively.
Take `O=C(N[C@H]1CCCC[C@@H]1O)c1cn(Cc2cc(Br)ccc2F)c2cccnc12` [Example 1, 1-(5-bromo-2-fluorobenzyl)-N-((1S,2S)-2-hydroxycyclohexyl)-1H-pyrrolo[3,2b]pyridine-3-carboxamide]: the results for the EC50 at human M1 and at M1 receptor were 545 nM and 1950 nM, respectively.
Turning to `Cn1cc(-c2ccc(Cn3cc(C(=O)N[C@H]4CCCC[C@@H]4O)c4ncccc43)cc2)cn1` [Example 55, N-((1S,2S)-2-hydroxycyclohexyl)-1-(4-(1-methyl-1H-pyrazol-4-yl)benzyl)-1H-pyrrolo[3,2-b]pyridine-3-carboxamide], the results for the 50% effective concentration (EC50) at human M1 and on M1 receptor were 11.1 nM and 13.9 nM, respectively.
Take `O=C(N[C@H]1CCCC[C@@H]1O)c1cn(Cc2ccc(C(F)(F)F)nc2)c2cccnc12` [Example 48, N-((1S,2S)-2-hydroxycyclohexyl)-1-((6-(trifluoromethyl)pyridin-3-yl)methyl)-1H-pyrrolo[3,2-b]pyridine-3-carboxamide]: the EC50 on human M1 came out at 1770 nM; at M1 receptor, 422 nM.
Regarding `NC(=O)c1ccc(Cn2cc(C(=O)N[C@H]3CCOC[C@@H]3O)c3ncccc32)cc1` (stereo in doubt) [Example 63b, 1-(4-carbamoylbenzyl)-N-((3R,4S)-3-hydroxytetrahydro-2H-pyran-4-yl)-1H-pyrrolo[3,2-b]pyridine-3-carboxamide], the EC50 at human M1 amounted to 13 nM; on M1 receptor, 47 nM.
Turning to `O=C(N[C@H]1CCCC[C@@H]1O)c1cn(Cc2ccc(-c3nccs3)cc2)c2cccnc12` [Example 60, N-((1S,2S)-2-hydroxycyclohexyl)-1-(4-(thiazol-2-yl)benzyl)-1H-pyrrolo[3,2-b]pyridine-3-carboxamide], the half-maximal effective concentration (EC50) on human M1 was 38.2 nM; at M1 receptor, 126 nM.
`Cn1cc(-c2ccc(Cn3cc(C(=O)N[C@H]4CCCC[C@]4(C)O)c4ncccc43)c(F)c2)cn1` (racemic) [Example 39, 1-(2-fluoro-4-(1-methyl-1H-pyrazol-4-yl)benzyl)-N-((1SR,2SR)-2-hydroxy-2-methylcyclohexyl)-1H-pyrrolo[3,2-b]pyridine-3-carboxamide]: the EC50 was found to be 177 nM at human M1 and 264 nM at M1 receptor.

The record behind these values is patent publication US9932335B2 (priority 2013, dated 2018).
